Reference: PMC5564600 (Oncotarget, 2017)
Read-outs that look alike come from different tables or passages of the source.

Experiments:
Assay in all cases: biochemical
Type in all cases: binding
panel of 442 kinases [1] = biological target: T1, panel of 442 kinases (Homo sapiens, UniProt O00444); details: kinase PLK4; for remaining activity at 1 µM: read-out: PLK4 (% of control at 1 µM)
T1 construct: purchased Ambit Biosciences (scanMAXX KINOMEscan)
T1 sequence (O00444 1-970): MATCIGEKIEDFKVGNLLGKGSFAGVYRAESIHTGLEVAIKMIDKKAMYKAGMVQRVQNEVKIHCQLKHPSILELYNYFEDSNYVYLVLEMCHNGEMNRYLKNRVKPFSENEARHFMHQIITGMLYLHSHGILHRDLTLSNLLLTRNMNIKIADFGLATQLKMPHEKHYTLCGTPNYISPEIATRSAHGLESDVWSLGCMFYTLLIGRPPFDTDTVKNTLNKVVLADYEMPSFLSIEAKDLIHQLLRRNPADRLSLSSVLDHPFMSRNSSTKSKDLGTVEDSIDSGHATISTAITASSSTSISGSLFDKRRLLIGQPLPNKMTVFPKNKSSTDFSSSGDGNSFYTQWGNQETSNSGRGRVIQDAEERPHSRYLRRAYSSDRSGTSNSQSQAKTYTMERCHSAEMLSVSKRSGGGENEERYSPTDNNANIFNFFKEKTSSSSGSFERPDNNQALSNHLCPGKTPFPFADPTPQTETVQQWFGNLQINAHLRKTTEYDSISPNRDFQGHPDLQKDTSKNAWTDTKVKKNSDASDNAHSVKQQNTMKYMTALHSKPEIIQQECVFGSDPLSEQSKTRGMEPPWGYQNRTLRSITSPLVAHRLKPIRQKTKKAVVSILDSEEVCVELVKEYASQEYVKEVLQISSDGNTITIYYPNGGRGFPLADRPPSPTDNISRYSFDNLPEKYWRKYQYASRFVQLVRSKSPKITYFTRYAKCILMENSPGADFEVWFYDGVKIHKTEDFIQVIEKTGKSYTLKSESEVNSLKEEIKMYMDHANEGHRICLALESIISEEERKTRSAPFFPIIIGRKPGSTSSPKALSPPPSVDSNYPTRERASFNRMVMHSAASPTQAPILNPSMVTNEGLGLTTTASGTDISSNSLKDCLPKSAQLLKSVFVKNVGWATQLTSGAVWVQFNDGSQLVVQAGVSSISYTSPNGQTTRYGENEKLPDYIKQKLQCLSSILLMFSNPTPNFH

panel of 442 kinases [2] = biological target: T2, panel of 442 kinases (Homo sapiens, UniProt Q9Y616); details: kinase IRAK3; for remaining activity at 1 µM: read-out: % of control at 1 µM
T2 construct: purchased Ambit Biosciences (scanMAXX KINOMEscan)
T2 sequence (Q9Y616 1-596): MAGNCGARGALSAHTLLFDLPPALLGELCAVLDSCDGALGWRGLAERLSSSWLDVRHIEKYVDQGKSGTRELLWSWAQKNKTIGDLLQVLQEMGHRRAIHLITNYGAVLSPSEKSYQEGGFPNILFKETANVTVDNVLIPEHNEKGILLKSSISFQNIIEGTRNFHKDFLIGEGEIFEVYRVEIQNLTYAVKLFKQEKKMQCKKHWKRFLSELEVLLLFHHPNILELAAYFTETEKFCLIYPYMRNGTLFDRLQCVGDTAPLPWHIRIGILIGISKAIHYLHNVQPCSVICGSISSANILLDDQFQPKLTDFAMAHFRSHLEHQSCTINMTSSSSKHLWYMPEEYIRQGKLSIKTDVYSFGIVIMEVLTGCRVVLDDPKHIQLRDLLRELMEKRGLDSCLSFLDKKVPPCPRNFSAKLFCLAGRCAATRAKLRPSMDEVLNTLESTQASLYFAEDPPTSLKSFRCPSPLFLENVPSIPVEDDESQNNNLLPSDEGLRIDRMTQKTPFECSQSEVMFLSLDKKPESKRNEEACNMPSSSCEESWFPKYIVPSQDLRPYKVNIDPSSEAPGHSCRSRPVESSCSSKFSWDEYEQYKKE

panel of 442 kinases [3] = biological target: T3, panel of 442 kinases (Homo sapiens, UniProt P29597)
T3 construct: purchased Ambit Biosciences (scanMAXX KINOMEscan)

panel of 442 kinases [4] = biological target: T4, panel of 442 kinases (Plasmodium falciparum, UniProt P62344); details: kinase PFCDPK1(P.falciparum); for remaining activity at 1 µM: read-out: % of control at 1 µM; for remaining activity at 10 µM: read-out: % of control at 10 µM
T4 construct: purchased Ambit Biosciences (scanMAXX KINOMEscan)

panel of 442 kinases [5] = biological target: T5, panel of 442 kinases (Homo sapiens, UniProt P08631); details: kinase HCK; for remaining activity at 1 µM: read-out: % of control at 1 µM
T5 construct: purchased Ambit Biosciences (scanMAXX KINOMEscan)

panel of 442 kinases [6] = biological target: T6, panel of 442 kinases (Homo sapiens, UniProt Q9Y2K2); details: kinase QSK; for remaining activity at 1 µM: read-out: QSK (% of control at 1 µM)
T6 construct: purchased Ambit Biosciences (scanMAXX KINOMEscan)

panel of 442 kinases [7] = biological target: T7, panel of 442 kinases (Homo sapiens, UniProt Q9P0L2); details: kinase MARK1; for remaining activity at 1 µM: read-out: % of control at 1 µM
T7 construct: purchased Ambit Biosciences (scanMAXX KINOMEscan)

panel of 442 kinases [8] = biological target: T8, panel of 442 kinases (Homo sapiens, UniProt P00533, DEL752-759); details: EGFR(S752-I759del); for remaining activity at 1 µM: read-out: % of control at 1 µM
T8 construct: purchased Ambit Biosciences (scanMAXX KINOMEscan)

panel of 442 kinases [9] = biological target: T9, panel of 442 kinases (Homo sapiens, UniProt P0C264); details: kinase SgK110; for remaining activity at 1 µM: read-out: SgK110 (% of control at 1 µM)
T9 construct: purchased Ambit Biosciences (scanMAXX KINOMEscan)
T9 sequence (P0C264 1-359): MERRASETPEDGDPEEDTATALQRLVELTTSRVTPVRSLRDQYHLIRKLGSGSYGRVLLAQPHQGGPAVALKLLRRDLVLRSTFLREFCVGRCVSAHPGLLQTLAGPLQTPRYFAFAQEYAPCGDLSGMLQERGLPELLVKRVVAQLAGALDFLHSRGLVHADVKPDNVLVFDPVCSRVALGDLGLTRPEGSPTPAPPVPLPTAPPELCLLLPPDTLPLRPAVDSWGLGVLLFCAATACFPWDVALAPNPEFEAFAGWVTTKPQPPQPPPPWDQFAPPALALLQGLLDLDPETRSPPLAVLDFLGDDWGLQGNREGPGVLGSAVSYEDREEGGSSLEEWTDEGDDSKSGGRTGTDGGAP

[10] = 10 µM, read-out: % of control at 10 µM
[11] = kinase TYK2(JH1domain-catalytic), read-out: TYK2(JH1domain-catalytic) (% of control at 1 µM)
[12] = kinase TYK2(JH2domain-pseudokinase), read-out: TYK2(JH2domain-pseudokinase) (% of control at 1 µM)

T7 sequence (Q9P0L2 whole entry): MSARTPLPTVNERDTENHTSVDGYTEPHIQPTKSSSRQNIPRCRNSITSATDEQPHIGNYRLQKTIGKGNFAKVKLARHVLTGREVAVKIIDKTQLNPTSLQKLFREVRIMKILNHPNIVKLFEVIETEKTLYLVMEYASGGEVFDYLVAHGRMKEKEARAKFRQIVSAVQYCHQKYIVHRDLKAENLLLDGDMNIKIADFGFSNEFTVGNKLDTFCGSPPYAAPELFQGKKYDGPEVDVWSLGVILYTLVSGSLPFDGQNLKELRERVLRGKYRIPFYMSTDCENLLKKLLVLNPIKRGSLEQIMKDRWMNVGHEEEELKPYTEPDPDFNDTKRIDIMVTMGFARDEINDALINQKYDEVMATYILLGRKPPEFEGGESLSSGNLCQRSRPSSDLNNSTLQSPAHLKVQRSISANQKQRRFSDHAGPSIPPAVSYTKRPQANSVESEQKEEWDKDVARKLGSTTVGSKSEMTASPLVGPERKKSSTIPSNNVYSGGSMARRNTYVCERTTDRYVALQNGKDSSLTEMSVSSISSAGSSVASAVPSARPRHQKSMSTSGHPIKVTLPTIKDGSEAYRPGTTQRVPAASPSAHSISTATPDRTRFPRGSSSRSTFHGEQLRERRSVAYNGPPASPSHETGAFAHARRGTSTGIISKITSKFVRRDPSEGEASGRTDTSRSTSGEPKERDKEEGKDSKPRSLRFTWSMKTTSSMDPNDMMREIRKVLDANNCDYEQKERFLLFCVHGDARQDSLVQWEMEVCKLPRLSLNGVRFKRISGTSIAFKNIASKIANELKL
T3 sequence (P29597 whole entry): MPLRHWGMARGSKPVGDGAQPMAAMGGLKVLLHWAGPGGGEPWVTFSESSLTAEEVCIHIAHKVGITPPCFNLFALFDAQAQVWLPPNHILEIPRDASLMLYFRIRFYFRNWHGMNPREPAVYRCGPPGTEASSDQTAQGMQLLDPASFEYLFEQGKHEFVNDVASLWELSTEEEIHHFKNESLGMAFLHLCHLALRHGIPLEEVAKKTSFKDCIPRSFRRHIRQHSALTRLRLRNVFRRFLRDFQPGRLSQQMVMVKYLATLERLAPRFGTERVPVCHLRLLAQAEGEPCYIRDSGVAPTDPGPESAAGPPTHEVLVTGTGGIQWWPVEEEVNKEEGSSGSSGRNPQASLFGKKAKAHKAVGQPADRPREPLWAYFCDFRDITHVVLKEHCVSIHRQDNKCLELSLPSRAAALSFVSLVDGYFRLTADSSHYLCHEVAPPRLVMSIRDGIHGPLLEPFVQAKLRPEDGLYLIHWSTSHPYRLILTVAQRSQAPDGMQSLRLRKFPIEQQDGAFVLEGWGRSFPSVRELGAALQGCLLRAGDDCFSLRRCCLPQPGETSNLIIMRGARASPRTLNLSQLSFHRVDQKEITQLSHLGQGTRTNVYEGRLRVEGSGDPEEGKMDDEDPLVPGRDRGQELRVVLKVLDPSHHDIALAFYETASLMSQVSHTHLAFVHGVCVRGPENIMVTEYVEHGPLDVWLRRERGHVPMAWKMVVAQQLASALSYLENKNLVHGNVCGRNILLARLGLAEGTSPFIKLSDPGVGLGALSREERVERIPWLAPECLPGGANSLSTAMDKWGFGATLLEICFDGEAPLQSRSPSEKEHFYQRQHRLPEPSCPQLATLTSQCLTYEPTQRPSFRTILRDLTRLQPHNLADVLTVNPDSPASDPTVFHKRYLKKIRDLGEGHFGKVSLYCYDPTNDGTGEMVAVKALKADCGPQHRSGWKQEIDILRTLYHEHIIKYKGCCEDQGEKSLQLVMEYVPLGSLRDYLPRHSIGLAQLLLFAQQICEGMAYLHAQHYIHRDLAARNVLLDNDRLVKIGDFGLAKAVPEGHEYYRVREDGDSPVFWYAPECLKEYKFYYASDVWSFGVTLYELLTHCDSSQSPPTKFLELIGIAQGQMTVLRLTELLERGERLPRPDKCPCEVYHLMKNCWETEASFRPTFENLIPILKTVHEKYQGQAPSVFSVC
T8 sequence (P00533 with tags, fused parts or gaps DEL752-759): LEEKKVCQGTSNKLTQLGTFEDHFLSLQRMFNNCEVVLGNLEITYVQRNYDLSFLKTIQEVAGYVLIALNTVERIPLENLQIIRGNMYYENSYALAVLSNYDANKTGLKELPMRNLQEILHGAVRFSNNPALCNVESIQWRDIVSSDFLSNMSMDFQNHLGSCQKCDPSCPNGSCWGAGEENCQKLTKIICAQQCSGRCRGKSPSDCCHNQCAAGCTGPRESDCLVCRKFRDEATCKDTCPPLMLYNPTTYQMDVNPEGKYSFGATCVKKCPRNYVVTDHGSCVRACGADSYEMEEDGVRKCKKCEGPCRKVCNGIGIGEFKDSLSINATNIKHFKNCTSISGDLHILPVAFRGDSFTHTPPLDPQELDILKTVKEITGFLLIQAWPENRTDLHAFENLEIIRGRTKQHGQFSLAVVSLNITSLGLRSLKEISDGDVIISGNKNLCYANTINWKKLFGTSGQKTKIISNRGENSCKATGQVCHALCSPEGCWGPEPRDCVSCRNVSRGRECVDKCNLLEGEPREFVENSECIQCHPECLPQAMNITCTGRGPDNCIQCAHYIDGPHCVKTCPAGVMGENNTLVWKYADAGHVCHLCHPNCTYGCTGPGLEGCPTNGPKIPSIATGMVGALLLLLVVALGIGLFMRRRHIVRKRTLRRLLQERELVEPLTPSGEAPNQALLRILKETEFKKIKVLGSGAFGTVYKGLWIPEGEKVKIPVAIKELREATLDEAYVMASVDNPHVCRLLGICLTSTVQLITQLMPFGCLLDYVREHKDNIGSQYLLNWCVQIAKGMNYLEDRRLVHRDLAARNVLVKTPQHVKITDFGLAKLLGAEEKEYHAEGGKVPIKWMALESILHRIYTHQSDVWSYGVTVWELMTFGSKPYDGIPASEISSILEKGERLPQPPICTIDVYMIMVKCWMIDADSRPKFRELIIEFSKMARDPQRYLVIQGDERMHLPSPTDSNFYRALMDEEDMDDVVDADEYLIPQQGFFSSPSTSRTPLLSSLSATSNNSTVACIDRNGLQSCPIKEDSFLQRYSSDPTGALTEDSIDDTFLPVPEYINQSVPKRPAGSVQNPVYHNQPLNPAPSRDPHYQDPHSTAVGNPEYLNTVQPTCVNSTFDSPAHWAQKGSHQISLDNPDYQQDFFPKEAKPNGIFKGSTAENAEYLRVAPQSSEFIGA
T6 sequence (Q9Y2K2 whole entry): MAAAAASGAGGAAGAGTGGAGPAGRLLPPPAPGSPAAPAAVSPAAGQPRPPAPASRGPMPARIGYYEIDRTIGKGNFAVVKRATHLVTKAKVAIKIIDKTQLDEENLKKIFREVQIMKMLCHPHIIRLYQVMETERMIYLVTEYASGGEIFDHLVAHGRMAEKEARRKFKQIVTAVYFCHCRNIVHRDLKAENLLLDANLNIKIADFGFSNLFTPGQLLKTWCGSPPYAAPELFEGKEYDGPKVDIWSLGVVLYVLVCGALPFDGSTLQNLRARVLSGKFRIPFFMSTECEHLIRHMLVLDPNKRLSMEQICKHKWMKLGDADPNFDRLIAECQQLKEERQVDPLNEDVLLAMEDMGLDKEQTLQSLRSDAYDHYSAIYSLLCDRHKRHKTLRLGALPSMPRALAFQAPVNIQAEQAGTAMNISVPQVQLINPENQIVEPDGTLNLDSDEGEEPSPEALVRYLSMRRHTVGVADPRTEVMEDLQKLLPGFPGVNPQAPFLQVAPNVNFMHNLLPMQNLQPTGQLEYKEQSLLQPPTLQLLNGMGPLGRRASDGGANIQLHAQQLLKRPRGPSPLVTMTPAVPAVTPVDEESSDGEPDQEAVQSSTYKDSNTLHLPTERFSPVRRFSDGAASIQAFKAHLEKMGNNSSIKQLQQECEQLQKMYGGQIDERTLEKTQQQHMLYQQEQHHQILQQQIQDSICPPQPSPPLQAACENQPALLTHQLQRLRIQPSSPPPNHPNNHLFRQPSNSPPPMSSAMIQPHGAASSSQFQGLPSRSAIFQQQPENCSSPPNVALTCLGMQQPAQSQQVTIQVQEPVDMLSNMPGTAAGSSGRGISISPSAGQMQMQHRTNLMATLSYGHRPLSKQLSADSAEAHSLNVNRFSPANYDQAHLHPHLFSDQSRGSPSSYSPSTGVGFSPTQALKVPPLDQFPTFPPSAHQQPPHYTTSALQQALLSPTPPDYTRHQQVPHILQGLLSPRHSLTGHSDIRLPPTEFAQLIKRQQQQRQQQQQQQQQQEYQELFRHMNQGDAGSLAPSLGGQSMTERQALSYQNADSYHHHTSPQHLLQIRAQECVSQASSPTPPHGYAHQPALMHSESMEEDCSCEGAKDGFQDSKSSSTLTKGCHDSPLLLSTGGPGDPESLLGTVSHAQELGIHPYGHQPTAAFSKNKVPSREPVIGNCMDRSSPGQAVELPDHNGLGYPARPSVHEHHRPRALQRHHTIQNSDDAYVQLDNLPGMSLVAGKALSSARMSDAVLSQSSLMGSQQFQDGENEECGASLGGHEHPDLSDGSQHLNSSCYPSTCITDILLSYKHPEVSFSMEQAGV
T5 sequence (P08631 whole entry): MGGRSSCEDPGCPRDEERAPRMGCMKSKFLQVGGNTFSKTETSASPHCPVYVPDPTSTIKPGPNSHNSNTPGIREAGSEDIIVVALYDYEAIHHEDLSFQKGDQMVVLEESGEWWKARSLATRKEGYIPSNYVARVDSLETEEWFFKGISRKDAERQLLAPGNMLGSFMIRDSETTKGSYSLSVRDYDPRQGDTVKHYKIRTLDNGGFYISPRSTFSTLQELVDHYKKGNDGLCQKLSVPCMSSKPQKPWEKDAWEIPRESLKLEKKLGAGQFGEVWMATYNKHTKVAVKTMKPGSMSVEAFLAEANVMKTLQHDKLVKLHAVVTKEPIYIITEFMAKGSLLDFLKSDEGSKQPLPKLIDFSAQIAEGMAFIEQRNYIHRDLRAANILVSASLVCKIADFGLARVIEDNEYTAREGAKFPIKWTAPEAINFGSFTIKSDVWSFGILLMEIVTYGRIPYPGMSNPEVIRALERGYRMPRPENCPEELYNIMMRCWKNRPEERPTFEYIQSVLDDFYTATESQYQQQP

Row | Compound | remaining activity at 1 µM (panel of 442 kinases [1]) [%] | remaining activity at 10 µM (panel of 442 kinases [1]; 10 µM, read-out: PLK4 (% of control at 10 µM)) [%] | remaining activity at 1 µM (panel of 442 kinases [2]) [%] | remaining activity at 10 µM (panel of 442 kinases [2]; [10]) [%] | remaining activity at 1 µM (panel of 442 kinases [3]; [11]) [%] | remaining activity at 10 µM (panel of 442 kinases [3]; kinase TYK2(JH1domain-catalytic), read-out: TYK2(JH1domain-catalytic) (% of control at 10 µM)) [%] | remaining activity at 1 µM (panel of 442 kinases [3]; [12]) [%] | remaining activity at 10 µM (panel of 442 kinases [3]; kinase TYK2(JH2domain-pseudokinase), read-out: TYK2(JH2domain-pseudokinase) (% of control at 10 µM)) [%] | remaining activity at 1 µM (panel of 442 kinases [4]) [%] | remaining activity at 10 µM (panel of 442 kinases [4]) [%] | remaining activity at 1 µM (panel of 442 kinases [5]) [%] | remaining activity at 10 µM (panel of 442 kinases [5]; [10]) [%] | remaining activity at 1 µM (panel of 442 kinases [6]) [%] | remaining activity at 10 µM (panel of 442 kinases [6]; 10 µM, read-out: QSK (% of control at 10 µM)) [%] | remaining activity at 1 µM (panel of 442 kinases [7]) [%] | remaining activity at 10 µM (panel of 442 kinases [7]; [10]) [%] | remaining activity at 1 µM (panel of 442 kinases [8]) [%] | remaining activity at 10 µM (panel of 442 kinases [8]; [10]) [%] | remaining activity at 1 µM (panel of 442 kinases [9]) [%] | remaining activity at 10 µM (panel of 442 kinases [9]; 10 µM, read-out: SgK110 (% of control at 10 µM)) [%]
1 | Nc1cc(C(F)(F)F)c(-c2cc(N3CCOCC3)nc(N3CCOCC3)n2)cn1 [Buparlisib] | 93 | 87 | 95 | 96 | 100 | 100 | 32 | 22 | 99 | 100 | 100 | 100 | 100 | 100 | 100 | 100 | 83 | 87 | 91 | 100
2 | COc1ncc(-c2ccc3nccc(-c4ccnnc4)c3c2)cc1NS(=O)(=O)c1ccc(F)cc1F [Omipalisib] | 61 | – | 26 | – | 100 | – | 78 | – | 100 | – | 100 | – | 100 | – | 100 | – | 100 | – | 100 | –
3 | FC(F)c1nc2ccccc2n1-c1nc(N2CCOCC2)nc(N2CCOCC2)n1 [ZSTK474, 2-(difluoromethyl)-1-[4,6-di(4-morpholinyl)-1,3,5-triazin-2-yl]-1H-benzimidazole] | 84 | – | 100 | – | 93 | – | 97 | – | 82 | – | 100 | – | 65 | – | 98 | – | 100 | – | 100 | –
4 | CS(=O)(=O)N1CCN(Cc2cc3nc(-c4cccc5[nH]ncc45)nc(N4CCOCC4)c3s2)CC1 [Pictilisib, 2-(1H-indazol-4-yl)-6-(4-methanesulfonyl-piperazin-1-ylmethyl)-4-morpholin-4-yl-t hieno[3,2-d]pyrimidine] | – | – | – | – | – | – | – | – | 100 | 63 | – | – | – | – | – | – | – | – | – | –
5 | Cn1c(=O)n(-c2ccc(C(C)(C)C#N)cc2)c2c3cc(-c4cnc5ccccc5c4)ccc3ncc21 [Dactolisib, 2-methyl-2-[4-(3-methyl-2-oxo-8-quinolin-3-yl-2,3-dihydroimidazo[4,5-c]quinolin-1-yl)-phenyl] propionitrile] | 94 | – | 50 | – | 26 | – | 65 | – | 89 | – | 94 | – | 100 | – | 82 | – | 100 | – | 100 | –
